Test results as given in patent publication US7135326B2, “UDP-glucosyltransferases” (E. I. du Pont de Nemours and Company, priority 2002, dated 2006).

How the values were obtained:
[1] = system: Arabidopsis thaliana glucosyltransferase UGT84A1 (84A1, GT 3, SEQ ID NO:8); conditions: 20° C.; Lim et al. 2002; cited from earlier work
[2] = biological target: T1, Grape (Vitis sp.) UDP-glucosyltransferase (Grape GT), wild type, SEQ ID NO:18 (Vitis vinifera, UniProt F6H660); assay: Substrate inhibition of Grape GT in cell-free extract (initial rates, Table 2); type: biochemical; conditions: 10 mM pHBA; 25° C., pH 7.3, 10 mM UDP-glucose; data of Table 2
T1 construct: cell-free extract and purified recombinant protein
T1 sequence (F6H660 1-478): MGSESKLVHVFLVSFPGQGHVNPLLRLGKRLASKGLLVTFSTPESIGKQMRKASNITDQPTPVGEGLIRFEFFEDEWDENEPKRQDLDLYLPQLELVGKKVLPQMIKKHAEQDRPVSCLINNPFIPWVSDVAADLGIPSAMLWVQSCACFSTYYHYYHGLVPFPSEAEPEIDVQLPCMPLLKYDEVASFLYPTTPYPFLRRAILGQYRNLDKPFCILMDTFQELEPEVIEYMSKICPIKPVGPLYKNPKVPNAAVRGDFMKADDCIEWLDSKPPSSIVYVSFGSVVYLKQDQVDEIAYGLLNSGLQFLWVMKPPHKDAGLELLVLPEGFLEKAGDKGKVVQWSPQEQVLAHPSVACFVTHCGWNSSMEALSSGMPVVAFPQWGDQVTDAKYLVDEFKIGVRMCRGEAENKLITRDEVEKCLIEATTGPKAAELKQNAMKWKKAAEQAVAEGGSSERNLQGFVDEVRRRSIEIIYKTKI
Procedure: For protein production, the resulting recombinant strains were grown at 22° C. in 50 mL of LB media that contained kanamycin (50 μg/mL). At an A600 nm of ˜0.6, isopropyl-1-thio-β-D-galactopyranoside was added to a final concentration of 0.2 mM. Following a 22-h induction period at the same temperature, the cells were harvested by centrifugation and stored at −80° C. for subsequent manipulation as described below.
The frozen cell pellets were resuspended in 1.0 mL of a solution containing 100 mM Tris-HCl (pH 7.7), 5 mM MgSO4, 1 mM dithiothreitol, 0.03 mg/mL DNAse I, 0.5 mM phenylmethanesulfonyl fluoride, and passed once through a French pressure cell at 20,000 psi. […] Protein concentrations were determined by the Bradford Method using bovine serum albumin as a standard.
The second assay is based on the increase in absorbance at 368 nm that accompanies the formation of the glucose ester of sinapic acid. The experimental conditions were the same as those described above, but the test substrate was sinapic acid and product formation was calculated using an extinction coefficient of 5,570 M^−1 that was obtained with the authentic chemically synthesized compound under identical conditions. […]

[3] = biological target: T1, Grape (Vitis sp.) UDP-glucosyltransferase (Grape GT), wild type, SEQ ID NO:18; assay: Kinetic analysis of purified recombinant Grape GT (spectrophotometric assay at 304 nm); type: biochemical; conditions: saturated with pHBA; 25° C., pH 7.3, 10 mM UDP-glucose
Procedure: Turnover number for the present enzyme is determined according to principles well known in the art. […] Using the protein concentration as determined in μmols in the assay, one can determine how many μmols product are formed using 1.0 μmols enzyme in a fixed time period such as a second (i.e., how many times catalytic turnover occurred).
Initial rates of product formation were measured at 25° C. over a wide range of substrate concentrations using the spectrophotometric assay (see Example 4).

[4] = system: Arabidopsis thaliana UDP-glucosyltransferase 75B1; conditions: 20° C.; Lim et al. 2002; cited from earlier work

## O=C(O)c1ccc(O)cc1 [pHBA, p-Hydroxybenzoic acid]
[1]
  turnover number with pHBA: ~0.21 sec^−1
[2]
  substrate inhibition (in words): little, if any, substrate inhibition
[3]
  turnover number (kcat): ~10.9 s⁻¹
[4]
  turnover number (formation of the pHBA ester glucoside): 0.73 sec^−1
